One may read the Ki as a dissociation constant, usually derived from enzyme kinetics or from competition with a known ligand.

The values below come from patent publication US8815305B2, “Composition containing a plant extract and process for producing same” (BASF Beauty Care Solutions France S.A.S., priority 2003, dated 2014).

The target of assay [1] is T1, human leucocyte elastase (HLE) (Homo sapiens, UniProt P08246).
T1 sequence (P08246 30-267): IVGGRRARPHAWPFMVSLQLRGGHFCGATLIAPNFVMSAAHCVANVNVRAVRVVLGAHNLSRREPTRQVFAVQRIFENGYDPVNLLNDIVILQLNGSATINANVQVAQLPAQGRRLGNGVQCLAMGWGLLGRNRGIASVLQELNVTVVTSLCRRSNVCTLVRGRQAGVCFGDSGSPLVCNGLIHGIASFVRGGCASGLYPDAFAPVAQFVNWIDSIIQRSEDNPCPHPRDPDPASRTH
Particulars: cited from earlier work.

The subject of assay [2] is human keratinocytes. In words: Cytophotoprotection of human keratinocytes against UV-B radiation. Format: cell-based. The note with it: for Cell number, % against control / Released LDH, % against control / Released PGE2, % against control: UVB. From the text: UV-B irradiation (from 280 to 320 nm) of the human skin induces a cutaneous inflammation mainly by activation of an enzyme (phospholipase A2 or PLA2), which releases arachidonic acid from the cell membranes of the cells of the skin (V. A. De Leo, D. Hanson, I. B. Weinstein and L. C. Harber—Ultraviolet radiation stimulates the release of arachidonic acid from mammalian cells in culture—Photochemistry and Photobiology (1985) volume 41N°1 pages 51-56). Then other specific enzymes (so called cyclo-oxygenases) transform arachidonic acid in active components called prostaglandines (or PG) which are secreted out of the cells. The fixation of certain prostaglandins (PGE2) on specific skin receptors is followed by redness and swelling as after a sunburn. On cultured human cells, these UV-B effects on cell membranes are associated with a release in the supernatant medium of a cytoplasmic enzyme, the Lactate Dehydrogenase or LDH (B. Bonnekoh, B. Farkas, J. Geisel and G. Mahrle—Lactate dehydrogenase release as an indicator of dithranol-induced membrane injury in cultured human keratinocytes. Dermatological research (1990) volume 282, pages 325-331).
Expressed in keywords, the experiments were carried out as follows: • Inoculation of human keratinocytes within growth medium (standard medium with fetal calf serum (FCS) • Incubation 3 days at 37° C., CO2=5% • Exchange of growth medium with balanced salt solution containing ingredient to be tested • Irradiation of keratinocytes by UV-B: 50 mJ/cm^2 (DUKE GL40E lamp) (A DUKE GL40E lamp is a certain type of marketed sunlamp well known to the skilled artisan) • Incubation 1 day at 37° C., CO2=5% • Numeration of adherent cells after trypsination (trypsination is a process based on the use of the enzyme trypsine which is a protease allowing the retrieval of cell from the support in order to seed the cells into a bigger flask and therefore to expand the cell culture) • Recovery of supernatant medium for spectrophotometric determination of the activity of LDH, and PGE2 by ELISA method

The target of assay [3] is T2, bovine trypsin (Bos taurus, UniProt P00760).
T2 sequence (P00760 24-246): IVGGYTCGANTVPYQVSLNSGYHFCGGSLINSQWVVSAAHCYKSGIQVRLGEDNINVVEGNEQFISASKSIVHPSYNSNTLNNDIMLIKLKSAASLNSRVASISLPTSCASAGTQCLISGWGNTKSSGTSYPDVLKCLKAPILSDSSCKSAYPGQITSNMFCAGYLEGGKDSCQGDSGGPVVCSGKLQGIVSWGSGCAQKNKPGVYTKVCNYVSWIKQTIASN
The note with it: competitive or non-competitive; cited from earlier work.

Assay [4] concerns the target bovine chymotrypsin (Bos taurus, UniProt P00766). The note with it: competitive or non-competitive; cited from earlier work.
Assay [5] has as its system 5-lipoxygenase products in human neutrophils. The note with it: cited from earlier work.
Assay [6] has as its target porcine pancreatic elastase (Sus scrofa, UniProt P00772). The note with it: cited from earlier work.
Assay [7] has as its system leucine aminopeptidase. The note with it: cited from earlier work.
Assay [8] relates to leucine aminopeptidase. Particulars: cited from earlier work. The source holds these as a separate data set.
Assay [9] concerns the target T1, human leucocyte elastase (HLE). The note with it: read-out: HLE inhibitory activity IC(50); cited from earlier work.
Assay [10] has as its system Croton oil induced oedema of the mouse ear. Particulars: cited from earlier work.
For assay [11], the target named is elastase from pancreas (Sus scrofa, UniProt P00772). In words: Elastase inhibition, Elastin-Congo red as substrate. In kind it is biochemical. The note with it: 30 minutes at room temperature, Elastin-Congo red. The protocol:
This test was carried out with an elastase from pancreas on Elastin labelled with Congo red. The time of incubation was 30 minutes at room temperature and the optical density of released Congo red was recorded after centrifugation at a wavelength of 520 nm. al-antitrypsine was used as positive reference.
The following table summarizes the results expressed as EC 50 in % w/v. (EC 50 in % w/v is the concentration in % w/v which reduces the enzymatic activity by 50%.)

Assay [12] has as its system human fibroblasts. In words: Cytophotoprotection of human fibroblasts against UV-A radiation. Format: cell-based. The procedure:
The cytoprotection against UV-A radiation was evaluated by a test on human fibroblasts because UV-A radiation penetrates through the epidermis until the derma where it induces oxidative stress (DALLE CARBONARE M, PATHAK M A; Skin photosensitising agents and the role of reactive oxygen species in photoaging; JOURNAL OF PHOTOCHEMISTRY & PHOTOBIOLOGY, 1992, 14, 1-2, pages 105-124. This oxidative stress was evaluated in vitro by measuring of the level of released MDA (malonaldehyde) and of intracellular GSH (reduced glutathione) (Morliere P., Moisan A., Santus R., Huppe G., Mazière J. C., Dubertret L.: UV-A induced lipid peroxydation in cultured human fibroblasts. Biochim. Biophys. Acta, 1084, 3, pages 261-269 (1991)).
Expressed in keywords, the experiments were carried out as follows: • Inoculation of human fibroblasts within a growth medium (standard medium with foetal calf serum (FCS) • Incubation 3 days at 37° C., CO2=5% • Exchange of growth medium with balanced salt solution • Irradiation of fibroblasts by UV-A: 20 J/cm^2 (black light TFWN lamp) (A TFWN lamp is a certain type of marketed sunlamp well known to the skilled artisan) • Exchange of growth medium with standard medium without FCS but containing ingredient to be tested • Incubation 3 days at 37° C., CO2=5% • Recovery of supernatant medium for spectrophotometric determination of the malonaldialdehde (or MDA) rate • Cells number determined by evaluation of the levels of cellular proteins (Bradford's method) and the rate of cellular GSH was evaluated according to the method of Hissin

Sequence of porcine pancreatic elastase (P00772 27-266): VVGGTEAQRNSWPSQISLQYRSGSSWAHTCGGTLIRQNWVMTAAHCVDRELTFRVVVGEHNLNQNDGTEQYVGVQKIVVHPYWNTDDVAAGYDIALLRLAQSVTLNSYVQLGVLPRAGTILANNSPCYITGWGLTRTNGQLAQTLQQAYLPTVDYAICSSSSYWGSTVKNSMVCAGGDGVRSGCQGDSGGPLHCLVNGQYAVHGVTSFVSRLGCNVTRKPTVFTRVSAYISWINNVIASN
Sequence of elastase from pancreas (P00772 27-266): as above

As for `CC1(C)[C@@H](O)CC[C@]2(C)[C@H]3C(=O)C=C4[C@@H]5C[C@@](C)(C(=O)O)CC[C@]5(C)CC[C@@]4(C)[C@]3(C)CC[C@@H]12` [18 beta-glycyrrhetic acid], the “interaction with the ursolic acid binding site of HLE” value in assay [1] is reported as “can also interact with this binding site”.

Turning to `CC(=O)Oc1ccccc1C(=O)O` [Aspirin], in [2], the “UV toxic effects on the number of viable cells (cell number and released LDH)” value was “distinctly reduced”; the “release of inflammatory mediators such as PGE2” value is listed as “distinctly reduced”. In assay [2] (dose 0.0003%), the “Cell number, % against control” value is 67%; the “Released LDH, % against control” value is 13%; the “Released PGE2, % against control” value turned out to be 0%.

In the case of `COc1ccc2c(c1)c(CC(=O)O)c(C)n2C(=O)c1ccc(Cl)cc1` [Indomethacine, Indomethacin], in [2], the “UV toxic effects on the number of viable cells (cell number and released LDH)” value is reported as “moderately reduced”; the “release of inflammatory mediators such as PGE2” value was “drastically reduced”; the “Cell number, % against control” value is 34%; the “Released LDH, % against control” value turned out to be 77%. Further, in assay [2], the “Released PGE2, % against control” value is recorded as 0%.

As for `C=C(C)[C@@H]1CC[C@]2(C)CC[C@]3(C)C(CC[C@@H]4[C@@]5(C)CC[C@H](OC(=O)CCCCCCC/C=C/C/C=C/CCCCC)C(C)(C)[C@@H]5CC[C@]43C)[C@@H]12` (stereo partly drawn) [Lupeol linoleate], the Ki in [3] is 7 µM.

Take `CCCCCCCCCCCCCCCC(=O)O[C@H]1CC[C@]2(C)[C@H]3CC=C4[C@@H]5[C@@H](C)[C@H](C)CC[C@@]5(C)CC[C@@]4(C)[C@]3(C)CC[C@H]2C1(C)C` [alpha-Amyrin palmitate]: in [4], the Ki was 6 µM.

Turning to `CC(=O)O[C@H]1CC[C@]2(C)[C@H]3CC=C4[C@@H]5[C@@H](C)[C@H](C)CC[C@]5(C)CC[C@@]4(C)[C@]3(C)CC[C@H]2C1(C)C` [alpha-amyrin acetate], in assay [5], the “5-HETE synthesis” value is on record as “reduced” and the “LTB4 synthesis” value is on record as “without effect”.

For the molecule `CCCCCC=CCC=CCCCCCCCC(=O)OC1CCC2(C)C(CCC3(C)C2CC=C2C4C(C)C(C)CCC4(C)CCC23C)C1(C)C` (stereo not drawn) [alpha-amyrin linoleate], the figures for the inhibition constant (Ki) in assay [3] and in assay [4] were 16 µM and 28 µM, respectively.

With `C[C@H]1[C@H](C)CC[C@]2(C)CC[C@]3(C)C(=CC[C@@H]4[C@@]5(C)CC[C@H](O)C(C)(C)[C@@H]5CC[C@]43C)[C@H]12` [alpha-amyrin], the inhibition constant (Ki) in assay [3] is 29 µM; in assay [4], 18 µM. Also, the “inhibition of porcine pancreatic elastase” value in assay [6] was “ineffective or very weak”. In addition, in assay [7], the “inhibition of Lucilia cuprina leucine aminopeptidase” value is given as “ineffective or very weak”. For the same molecule, in assay [8], the “inhibition of Helicoverpa punctigera leucine aminopeptidase” value is listed as “ineffective or very weak”.

Take `CC(=O)O[C@H]1CC[C@]2(C)[C@H]3CC=C4[C@@H]5CC(C)(C)CC[C@]5(C)CC[C@@]4(C)[C@]3(C)CC[C@H]2C1(C)C` [beta-amyrin acetate]: in [5], the “5-HETE synthesis” value is reported as “reduced” and the “LTB4 synthesis” value is given as “without effect”.

For the molecule `CC1(C)CC[C@]2(C)CC[C@]3(C)C(=CC[C@@H]4[C@@]5(C)CC[C@H](O)C(C)(C)[C@@H]5CC[C@]43C)[C@@H]2C1` [beta-amyrin], in assay [5], the “5-HETE synthesis” value is given as “reduced” and the “LTB4 synthesis” value is on record as “without effect”.

Turning to `C[C@H]1C(=O)CC[C@@H]2[C@]1(C)CC[C@H]1[C@@]2(C)CC[C@@]2(C)[C@@H]3CC(C)(C)CC[C@]3(CO)CC[C@]12C` [canophyllol], the IC50 in assay [9] was 2.5 µM.

For the molecule `CCCCCCCCCCCCCCCC(=O)OC1CCC2(C)C(CCC3(C)C2CCC2C4C(C)C(C)=CCC4(C)C(O)CC23C)C1(C)C` (stereo not drawn) [faradiol-3-palmitic acid ester], in assay [10], the “anti-oedematous activity” value is on record as “nearly the same dose dependent anti-oedematous activity”.

For the molecule `CC1=CC[C@@]2(C)[C@H]([C@@H]1C)[C@H]1CC[C@@H]3[C@@]4(C)CC[C@H](O)C(C)(C)[C@@H]4CC[C@@]3(C)[C@]1(C)C[C@@H]2O` [faradiol], the “anti-oedematous activity” value in assay [10] is “more active than its esters and than psi-taraxasterol”. In addition, in assay [10] (equimolar dose), the “anti-oedematous effect compared with indomethacin” value was “same effect”.

With `CC1(C)CC[C@]2(C(=O)O)CC[C@]3(C)C(=CC[C@@H]4[C@@]5(C)CC[C@H](O)[C@@](C)(CO)[C@@H]5CC[C@]43C)[C@@H]2C1` [hederagenin], the “interaction with the ursolic acid binding site of HLE” value in assay [1] is on record as “can also interact with this binding site”.

As for `C=C(C)[C@@H]1CC[C@]2(C)CC[C@]3(C)[C@H](CC[C@@H]4[C@@]5(C)CC[C@H](OC(=O)CCCCCCCCCCCCCCC)C(C)(C)[C@@H]5CC[C@]43C)[C@@H]12` [lupeol palmitate], in [3], the inhibition constant (Ki) was 10 µM.

With `C=C(C)[C@@H]1CC[C@]2(C)CC[C@]3(C)[C@H](CC[C@@H]4[C@@]5(C)CC[C@H](O)C(C)(C)[C@@H]5CC[C@]43C)[C@@H]12` [lupeol], the IC50 in assay [9] was 1.9 µM. The values for the inhibition constant Ki in assay [3] and in assay [4] were 22 µM and 8 µM, respectively. In addition, the “inhibition of porcine pancreatic elastase” value in [6] is “ineffective or very weak”. In addition, the “inhibition of Lucilia cuprina leucine aminopeptidase” value in assay [7] is “ineffective or very weak”. In assay [8], the “inhibition of Helicoverpa punctigera leucine aminopeptidase” value is listed as “ineffective or very weak”.

On to `CC1=CCC2(C)CCC3(C)C(CCC4C5(C)CCC(O)C(C)(C)C5CCC43C)C2C1C` (stereo not drawn) [psi-taraxasterol], for which the “anti-oedematous activity” value in assay [10] was “slightly lower effect”.

For the molecule “A1 anti trypsine: positive reference of the elastase test”, the “Elastase EC 50 (concentration which reduces the enzymatic activity by 50%)” value in [11] is 0.03% w/v.

For Tocopherol, the “protection of human fibroblasts from toxic UVA effects” value in assay [12] is given as “strongly protected”. In assay [12] (UV-A 20 J/cm^2, dose 0.0003%), the “GSH/protein, % against control” value was 89%; the “Released MDA, % against control” value was 23%; the “cell's protein, % against control” value was found to be 106%.

faradiol-3-myristic acid ester: the “anti-oedematous activity” value in assay [10] was “nearly the same dose dependent anti-oedematous activity”.
